In patent US20070082892A1, “Benzotriazepine derivatives and their use as gastrin and cholecystokinin receptor ligands” (James Black Foundation Limited, priority 2003, published 2007):

Assays:
gastrin (CCK2) receptor = molecular target: T1, gastrin (CCK2) receptor (Rattus norvegicus, UniProt P30553); assay: gastrin (CCK2) antagonist activity in an immature rat stomach assay (pentagastrin-stimulated acid secretion); conditions: isolated immature rat stomach, 60 min incubation, cumulative pentagastrin dose-response curves; read-out: CCK2 pKB ± sem (converted)
T1 construct: The oesophagus of immature rats (33-50 g, ca. 21 days old) was ligated; from tissue; host or cells: isolated whole stomach of immature rats
T1 sequence (P30553 1-452): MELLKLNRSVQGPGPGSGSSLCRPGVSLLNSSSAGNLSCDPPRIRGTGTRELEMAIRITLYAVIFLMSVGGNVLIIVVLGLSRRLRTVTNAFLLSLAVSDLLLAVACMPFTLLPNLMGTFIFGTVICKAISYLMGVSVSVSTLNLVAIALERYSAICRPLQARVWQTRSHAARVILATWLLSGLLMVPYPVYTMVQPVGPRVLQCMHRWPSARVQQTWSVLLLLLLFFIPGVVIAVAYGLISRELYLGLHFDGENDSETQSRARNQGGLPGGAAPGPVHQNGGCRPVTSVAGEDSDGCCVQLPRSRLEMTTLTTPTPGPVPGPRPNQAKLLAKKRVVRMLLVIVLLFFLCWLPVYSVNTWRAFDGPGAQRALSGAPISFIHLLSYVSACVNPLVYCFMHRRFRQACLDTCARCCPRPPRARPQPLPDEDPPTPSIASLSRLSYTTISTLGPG

human CCK1-receptor = molecular target: T2, human CCK1-receptor (Homo sapiens, UniProt P32238); assay: CCK1 radioligand binding, displacement of [3H]-L-364,718 in CHO-K1 cells; conditions: displacement of [3H]-L-364,718, CHO-K1 cells with cloned human CCK1 receptor; S.E.M's on pKi are ±≦0.1
T2 construct: expressed in transfected cells; host or cells: CHO-K1
T2 sequence (P32238 1-428): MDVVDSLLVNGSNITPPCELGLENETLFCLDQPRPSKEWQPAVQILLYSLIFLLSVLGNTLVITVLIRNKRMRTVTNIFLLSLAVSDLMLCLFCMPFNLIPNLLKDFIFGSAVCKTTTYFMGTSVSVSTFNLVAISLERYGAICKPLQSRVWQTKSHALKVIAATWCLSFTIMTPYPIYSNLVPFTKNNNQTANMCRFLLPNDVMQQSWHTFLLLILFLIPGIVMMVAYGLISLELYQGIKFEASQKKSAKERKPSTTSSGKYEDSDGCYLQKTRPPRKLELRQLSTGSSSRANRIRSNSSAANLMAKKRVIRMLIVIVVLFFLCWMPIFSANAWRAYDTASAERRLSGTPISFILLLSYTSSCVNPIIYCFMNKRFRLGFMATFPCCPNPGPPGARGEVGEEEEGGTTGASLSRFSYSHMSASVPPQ
Procedure: The CCK1 activity of the ligands was assessed in a radioligand binding study, looking at the displacement of [^3H]-L-364,718 from sites in CHO-K1 cells into which the human CCK1-receptor sequence has been cloned. S.E.M's on pKi are ±≦0.1

Kb (gastrin (CCK2) receptor) [nM] | Ki (human CCK1-receptor) [nM] | Structure (SMILES)
6.76 | 100 | CC(C)(C)C(=O)CN1C(=O)N(CC(=O)Nc2cccc(SCC(=O)OCc3ccccc3)c2)C(=O)N(C2CCCCCC2)c2ccccc21 [Example 10]
43.7 | 3980 | CC(C)(C)C(=O)CN1C(=O)N(CC(=O)Nc2cccc(CC(=O)O)c2)C(=O)N(C2CCCCCC2)c2ccccc21 [Example 8, (3-{2-[1-Cycloheptyl-5-(3,3-dimethyl-2-oxo-butyl)-2,4-dioxo-1,2,4,5-tetrahydro-1,3,5-benzotriazepin-3-yl]-acetylamino}-phenyl)-acetic acid]
26.3 | 2510 | CC(C)(C)C(=O)CN1C(=O)N(CC(=O)Nc2cccc(CCC(=O)O)c2)C(=O)N(C2CCCCC2)c2ccccc21 [Example 14, 3-(3-{2-[1-Cyclohexyl-5-(3,3-dimethyl-2-oxo-butyl)-2,4-dioxo-1,2,4,5-tetrahydro-1,3,5-benzotriazepin-3-yl]-acetylamino}-phenyl)-propionic acid]
4.47 | 251 | CC(C)(C)C(=O)CN1C(=O)N(CC(=O)Nc2cccc(SCC(=O)O)c2)C(=O)N(C2CCCCCC2)c2ccccc21 [Example 11, (3-{2-[1-Cycloheptyl-5-(3,3-dimethyl-2-oxo-butyl)-2,4-dioxo-1,2,4,5-tetrahydro-1,3,5-benzotriazepin-3-yl]-acetylamino}-phenylsulfanyl)-acetic acid]

The next lines start with the molecule.

Structure (SMILES) | Kb (gastrin (CCK2) receptor) [nM] | Ki (human CCK1-receptor) [nM]
Cc1nc(-c2cccc(NC(=O)CN3C(=O)N(CC(=O)C(C)(C)C)c4ccccc4N(C4CCCCC4)C3=O)c2)cs1 [Example 15, 2-[1-Cyclohexyl-5-(3,3-dimethyl-2-oxo-butyl)-2,4-dioxo-1,2,4,5-tetrahydro-1,3,5-benzotriazepin-3-yl]-N-[3-(2-methyl-thiazol-4-yl)-phenyl]-acetamide] |  | 1580
CC(C)(C)C(=O)CN1C(=O)N(CC(=O)Nc2cccc(-c3nc(=O)o[nH]3)c2)C(=O)N(C2CCCCCC2)c2ccccc21 [Example 12, 2-[1-Cycloheptyl-5-(3,3-dimethyl-2-oxo-butyl)-2,4-dioxo-1,2,4,5-tetrahydro-1,3,5-benzotriazepin-3-yl]-N-[3-(5-oxo-2,5-dihydro-[1,2,4]-oxadiazol-3-yl)-phenyl]-acetamide] | 3.24 | 126
CNc1cccc(NC(=O)CN2C(=O)N(CC(=O)C(C)(C)C)c3ccccc3N(C3CCCCC3)C2=O)c1 [Example 13, 2-[1-Cyclohexyl-5-(3,3-dimethyl-2-oxo-butyl)-2,4-dioxo-1,2,4,5-tetrahydro-1,3,5-benzotriazepin-3-yl]-N-(3-methylamino-phenyl)-acetamide] | 19.5 | 2510
CN(c1cccc(NC(=O)CN2C(=O)N(CC(=O)C(C)(C)C)c3ccccc3N(C3CCCCC3)C2=O)c1)c1nn[nH]n1 [Example 16, 2-[1-Cyclohexyl-5-(3,3-dimethyl-2-oxo-butyl)-2,4-dioxo-1,2,4,5-tetrahydro-1,3,5-benzotriazepin-3-yl]-N-{3-[methyl-(2H-tetrazol-5-yl)-amino]-phenyl}-acetamide] |  | 2000
O=C(CN1C(=O)N(CC(=O)N2CCCC2)c2ccccc2N(c2ccccc2)C1=O)Nc1cccc(C(=O)O)c1 [Example 3, 3-{2-[2,4-Dioxo-1-(2-oxo-2-pyrrolidin-1-yl-ethyl)-5-phenyl-1,2,4,5-tetrahydro-1,3,5-benzotriazepin-3-yl]-acetylamino}-benzoic acid] | 708 | > 10000
O=C(CN1C(=O)N(CC(=O)N2CCCC2)c2ccccc2N(c2ccccc2)C1=O)Nc1ccc(F)cc1 [Example 2, 2-[2,4-Dioxo-1-(2-oxo-2-pyrrolidin-1-yl-ethyl)-5-phenyl-1,2,4,5-tetrahydro-1,3,5-benzotriazepin-3-yl]-N-(4-fluoro-phenyl)-acetamide] | 2240 | 7940
CC(C)(C)C(=O)CN1C(=O)N(CCCC(=O)Nc2cccc(-c3nc(=O)o[nH]3)c2)C(=O)N(C2CCCCC2)c2ccccc21 [Example 19, 4-[1-Cyclohexyl-5-(3,3-dimethyl-2-oxo-butyl)-2,4-dioxo-1,2,4,5-tetrahydro-1,3,5-benzotriazepin-3-yl]-N-[3-(5-oxo-2,5-dihydro-[1,2,4]oxadiazol-3-yl)-phenyl]-butyramide] | 87.1 | 
